Reference: patent US8124655B2, “Use of LR-90 and LR-102 to overcome insulin resistance” (City of Hope, priority 2007, dated 2012)

Assays:
[1] = system: CML-AGE, AGER; assay: Plasma and renal AGE and AGER; assay type: in vivo, rat; conditions: ZDF rats
Protocol: All animal studies were carried out in compliance with policies outlined in The Guide for the Care and Handling of Laboratory Animals (NIH Publication No. 85-23) that have been approved by the City of Hope Animal Care Committee. Male ZDF (fa/fa) and male Zucker lean (+/+; ZL) rats were obtained at the age of 5 weeks from Charles River Laboratories (Wilmington, Mass., USA). Animals were maintained with free access to Purina 5008 rat chow (Purina Mills, St Louis, Mo., USA) and tap water. All animals were individually housed in a controlled room with a 12 h dark-light cycle. At the age of 13 weeks, the animals were divided into the following groups: (1) ZL rats (n=6); (2) ZDF rats without treatment (n=6); and (3) ZDF rats treated with LR-90 at 50 mg/l in their drinking water (ZDF90, n=6). The dose of LR-90 was chosen after previous experiments with type 1 diabetic nephropathy. Food, water intake, body weight and blood glucose levels were monitored periodically. Systolic blood pressure was measured by tail-cuff plethysmography (CODA2 Blood Pressure System; Kent Scientific, Torrington, Conn., USA). […] Plasma glucose, lipids and Nε-(carboxymethyl)lysine-AGE Plasma glucose was measured using a glucose analyzer (2300 STAT; YSI, Yellowsprings, Ohio, USA). Total plasma triacylglycerol and cholesterol concentrations were quantified using the Vitros 250 Chemistry System (Johnson & Johnson, Rochester, N.Y., USA). Nε-(Carboxymethyl)lysine (CML)-AGE was liberated from plasma proteins by acid hydrolysis and then measured by ion-pair reversed-phase liquid chromatography/tandem mass spectrometry as described previously. […]
Renal cortical tissues were homogenised in PBS buffer with 1% (vol./vol.) Nonidet P-40, 0.5% (wt/vol.) sodium deoxycholate, 0.1% (wt/vol.) SDS and protease inhibitor mixture (Roche, Indianapolis, Ind., USA). […] Protein concentrations were measured using the Bio-Rad DC Assay kit. […] Immunoreactive proteins were detected by enhanced chemiluminescence (Western Lightning Chemiluminescence Reagent; Perkin-Elmer, Waltham, Mass., USA) using horseradish peroxidase-labelled secondary antibodies. […]

[2] = system: Zucker diabetic fatty (ZDF) rat; assay: Kidney lipid peroxidation (malondialdehyde, TBARS), Example 1; assay type: in vivo; conditions: ZDF animals
Protocol: To assess lipid peroxidation in renal cortical homogenates, malondialdehyde, an end-product of lipid peroxidation, was measured as thiobarbituric acid reactive substances by calorimetric reaction as described. Reaction was carried in the presence of EDTA and antioxidant butylated hydroxytoluene, and the absorbance was measured at 532 nm (UV-1601; Shimadzu Scientific Instruments, Columbia, Md., USA). Hydrolysed 1,1,3,3-tetramethoxypropane was used as standard [prepared by incubating 10 mmol/l tetramethoxypropane with 1% (vol./vol.) H2SO4 for 2 h at room temperature]. Results are expressed as nanomole malondialdehyde per milligram protein.

[3] = system: experimental type 1 diabetic nephropathy; conditions: previous studies (24); cited from earlier work
[4] = system: TGF-β1, CTGF, fibronectin and collagen IV; assay: Renal TGF-β1, CTGF and ECM proteins by RT-PCR, western blot and immunostaining; assay type: in vivo, rat
Excerpt: Tissue sections were deparaffinised by sequential exposure to xylene and ethanol, dehydrated and then exposed to H2O2 to eliminate endogenous peroxidase activity. The kidney sections were then blocked with 2% (wt/vol.) BSA and exposed to specific antibodies against AGE, AGER, TGF-β1, CTGF, fibronectin and collagen type IV. Biotinylated anti-rabbit or anti-mouse IgG was then applied as a secondary antibody, followed by horseradish peroxidase conjugated streptavidin. The staining was visualised by reaction with 3,3′-diaminobenzidine tetrahydrochloride and then counterstained with haematoxylin. All the sections were examined by light microscopy (Olympus AX70) and photographed with Retiga 2000R camera.
Renal cortical tissues were homogenised in PBS buffer with 1% (vol./vol.) Nonidet P-40, 0.5% (wt/vol.) sodium deoxycholate, 0.1% (wt/vol.) SDS and protease inhibitor mixture (Roche, Indianapolis, Ind., USA). Homogenates were centrifuged for 15 min at 4° C. and at 12,000 rpm and the supernatant fractions collected and stored at −70° C. Nuclear extracts were prepared as described previously. Protein concentrations were measured using the Bio-Rad DC Assay kit. Total RNA was isolated using the RNA-STAT-60 reagent (Tel-Test, Friendswood, Tex., USA). Western blot assay Protein samples (50 μg) were separated on 10 to 20% gradient Tris-glycine Criterion gels (Bio-Rad) and then transferred to nitrocellulose membranes. The membranes were blocked with 5% (wt/vol.) skimmed milk in PBS before incubation with anti-TGF-β1, anti-CTGF, anti-AGER, anti-phospho-p38 MAPK, anti-phospho-p44/42 MAPK and anti-p65 NF-κB antibodies. Immunoreactive proteins were detected by enhanced chemiluminescence (Western Lightning Chemiluminescence Reagent; Perkin-Elmer, Waltham, Mass., USA) using horseradish peroxidase-labelled secondary antibodies. Equal amounts of protein loading were confirmed by restaining the membranes with antibodies against β-actin, p38 MAPK or p44/42 MAPK for cytosolic extracts or with histone H2B for nuclear extracts. Band intensities were quantified using a densitometer (Quantity One, Bio-Rad). Reverse transcriptase-polymerase chain reaction Total RNA (1 μg) was used for the RT reaction using the GeneAmp RNA PCR kit (Applied Biosystems, Foster City, Calif., USA). Total cDNA was then used in PCR reactions containing gene specific primers [Electronic supplementary material (ESM) Table 1] paired with Quantum 18S rRNA internal standards (Ambion, Austin, Tex., USA). Multiplex PCR reactions were performed in a GeneAmp 9700 (Applied Biosystems). […] The densities of amplified products corresponding to specific genes and 18S rRNA were quantified with Quantity One software (Bio-Rad). Results are expressed as the means of the ratios of Tgfb1, Ctgf or Ager band densities to the 18S rRNA band density.

[5] = kidneys of ZDF rats, to almost similar levels as in ZL rats

With `CC(C)(Oc1ccc(NC(=O)Nc2ccc(Cc3ccc(NC(=O)Nc4ccc(OC(C)(C)C(=O)O)cc4)c(Cl)c3)cc2Cl)cc1)C(=O)O` [LR-90, methylene bis[4,4′-(2-chlorophenylureidophenoxyisobutyric acid)]] the “Ager mRNA and protein in kidney tissues” value ([1]; RT-PCR and immunostaining) was “markedly abrogated”, the “AGE accumulation in kidney tissues” value ([1]; immunohistochemistry) was “markedly abrogated” and the “attenuation of circulating plasma CML-AGE concentration” value ([1]; p<0.01, LC/tandem MS) was 22%. The “reduction of kidney lipid peroxidation” value [2] was roughly 40%, the “development of experimental type 1 diabetic nephropathy” value [3] was “prevented” and the “mRNA expression and protein production of CTGF” value ([4]; kidneys of ZDF animals) was “significantly attenuated”. The “mRNA expression and protein production of TGF-β1” value ([4]; kidneys of ZDF animals) was “significantly attenuated”, the “positive immunostaining for collagen IV” value [4, 5] was “markedly reduced” and the “positive immunostaining for fibronectin” value [4, 5] was “markedly reduced”.
